Experimental data reported in US20220389465A1, “METHODS OF REDUCING BIURET IN UREA COMPOSITIONS” (Regents of the University of Minnesota, priority 2019, published 2022).

Experiments:
biuret hydrolase [1] = test: BiuH activity in the presence of urea (Berthelot ammonia assay); assay type: biochemical, Herbaspirillum sp. BH-1
Method: (§1) Analytical methods: The colorimetric Berthelot ammonia assay was used to measure residual ammonium (NH4^+) present in the urea and to detect NH4^+ released from the residual biuret in urea by addition of biuret hydrolase (BiuH) enzyme. The assay was conducted by adding 0.100 ml of sample directly to 0.300 ml of solution A (10 g/L phenol and 0.050 g/L sodium nitroprusside), followed by addition of 0.400 ml of solution B (5 g/L sodium hydroxide and 8.25 ml/L of commercial chlorine bleach or 5.25% sodium hypochlorite). The reactions were pulsed on a vortex mixer, incubated at 37° C. for 60 min, and then absorbance at 630 nm was read with a Beckman-Coulter DU-640 spectrophotometer. Quantification of NH4^+ was done via a standard curve prepared from ammonium chloride (NH4Cl) (Sigma-Aldrich, St. Louis, Mo.) standards at 5-1000 μM in deionized reverse osmosis (DI/RO) water that were analyzed with the Berthelot reaction.
BiuH activity in the presence of urea: Biuret degradation reactions were performed by adding 10-20 μg purified BiuH to 0.5 ml of urea standards (0.5-8 M) in DI/RO water in 1.7 ml microcentrifuge tubes. […] Total ammonium (NH4^+) was quantified with the Berthelot assay. Residual biuret present in urea was determined by treating unspiked urea standards with BiuH and subtracting the amount of residual NH4^+ detected above. […]

[2] = molecular target: T1, triuret hydrolase (TrtA) from Herbaspirillum sp. BH-1 (Herbaspirillum sp. BH-1, UniProt A0A2N6JFX7); test: Kinetic constants of triuret hydrolase (Km for triuret, inhibition by urea, FIG. 16B); assay type: biochemical; conditions: urea concentrations up to 50 mM
T1 sequence (A0A2N6JFX7 1-227): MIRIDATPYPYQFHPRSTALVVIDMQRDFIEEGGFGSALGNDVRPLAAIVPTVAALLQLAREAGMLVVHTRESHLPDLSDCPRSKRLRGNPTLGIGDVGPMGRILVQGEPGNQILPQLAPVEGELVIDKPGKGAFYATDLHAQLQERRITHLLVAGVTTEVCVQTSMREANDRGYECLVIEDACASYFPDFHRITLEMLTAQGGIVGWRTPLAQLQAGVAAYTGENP

[3] = tested on: native biuret hydrolase (BiuH) from Herbaspirillum sp. BH-1, six-histidine tag; test: BiuH activity in the presence of urea (Berthelot ammonia assay, FIGS. 4, 5A-5B); assay type: biochemical
Method: FIG. 4. Evaluation of urea inhibition of biuret hydrolase and various urea concentrations. Biuret was added at 0.8 mM concentration and 30 microgram enzyme per ml incubated for 30 minutes.
as §1
Enzyme purification: A synthetic gene encoding the native biuret hydrolase from Herbaspirillum sp. BH-1 was expressed with a C- or N-terminal six-histidine tag from an isopropyl-β-D-thiogalactoside (IPTG)-inducible promoter T7 promoter on a plasmid in Eschrichia coli BL2(DE3). Cells were harvested by centrifugation and lysed with a French pressure cell (two passages at 124 MPa) in a buffer of 20 mM sodium phosphate (pH 7.4), 500 mM sodium chloride, 10 mM imidazole, and 10 mM 2-mercaptoethanol. The resulting crude lysate was centrifuged at 19,000×g for 60 min and the supernatant was passed through a […] filter. An AKTA FPLC system (GE Healthcare, Chicago, Ill.) was used to inject the filtrate (cleared crude lysate) onto a HisTrap affinity column (GE Healthcare) charged with Ni^2+ ions. Bound BiuH was eluted from the column with a linear gradient of 20-250 mM imidazole in the same buffer. […] Total protein concentration was determined with the BioRad (Hercules, Calif.) Bradford protein assay reagent and BiuH purity was verified by SDS-PAGE. […]
BiuH activity in the presence of urea: Biuret degradation reactions were performed by adding 10-20 μg purified BiuH to 0.5 ml of urea standards (0.5-8 M) in DI/RO water in 1.7 ml microcentrifuge tubes. […] Total ammonium (NH4^+) was quantified with the Berthelot assay. Residual biuret present in urea was determined by treating unspiked urea standards with BiuH and subtracting the amount of residual NH4^+ detected above. […] Net NH4^+ released from the spiked biuret by BiuH was calculated by subtracting the amounts of residual biuret and NH4^+ detected in the control treatments. […]

biuret hydrolase [4] = molecular target: T2, biuret hydrolase (Rhizobium johnstonii, UniProt Q1M7F4); test: Inhibition of biuret hydrolase by urea, kinetic constants; assay type: biochemical
T2 construct: six-histidine tag (C); made in house; host or cells: Escherichia coli BL21(DE3)
T2 sequence (Q1M7F4 whole entry): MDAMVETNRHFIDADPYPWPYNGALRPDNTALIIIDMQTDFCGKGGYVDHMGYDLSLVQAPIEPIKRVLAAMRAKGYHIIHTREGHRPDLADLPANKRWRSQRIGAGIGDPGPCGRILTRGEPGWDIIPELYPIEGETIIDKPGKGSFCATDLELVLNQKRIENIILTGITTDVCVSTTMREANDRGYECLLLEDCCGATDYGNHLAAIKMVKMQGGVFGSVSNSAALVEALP

cyanuric acid hydrolase = conditions: no turnover observed; cited from earlier work

SMILES: NC(N)=O [urea]
- inhibition of biuret hydrolase by urea (biuret hydrolase [1]; 4M urea, NH4+ released from residual biuret in 0.5-8.0 M Fluka urea): slight inhibition
- inhibition of biuret hydrolase by urea (biuret hydrolase [1]; urea up to 0.5M, biuret 0.8 mM, 30 microgram enzyme per ml, 30 minutes): not inhibited
- inhibition by urea [2]: no inhibition was measurable
- inhibition by urea ([3]; 4M urea, residual biuret in Fluka urea): slight inhibition
- inhibition by urea ([3]; 10,000 fold higher concentration of urea than biuret): not inhibited
- inhibition by urea ([3]; urea concentrations higher than 4M (up to 8.0 M), residual biuret in Fluka urea): stronger inhibition
- inhibition by urea ([3]; urea up to 0.5M, 0.8 mM biuret, 30 microgram enzyme per ml, 30 minutes): not inhibited
- Ki (biuret hydrolase [4]): 34 mM
- inhibition of triuret hydrolase by urea (triuret hydrolase; urea concentrations up to 50 mM): no inhibition

SMILES: O=C1CC(=O)NC(=O)N1 [barbituric acid]
- effect on cyanuric acid hydrolase (cyanuric acid hydrolase): inhibitor

SMILES: NC(=O)NC(=O)NC(N)=O [triuret]
- Km (triuret hydrolase; read-out: Km for triuret): 20 to 21 µM
